Results on three molecules are retold here after patent US20090232744A1, “Macrolide compositions having improved taste and stability” (priority 2008, published 2009).

Data set [1] deals with Burkholderia cepacia ATCC 17759. Put plainly: MIC, agar dilution method. It counts as cell-based. Conditions: ATCC17759, Mueller-Hinton agar, aerobic, 16-20 h at 36° C. An excerpt:
(§1) The formulations prepared according to Examples 11, 12 and 13, were used to evaluate the Minimal Inhibitory Concentration (MIC) required to inhibit the growth of the following organisms: Burkholderia cepacia, Haemophilus influenzae, and Pseudomonas aeruginosa, using the agar dilution method based on DIN 58940 and 58944 according to NCCLS (National Committee on Clinical Laboratory Standards) criteria. […] To determine MIC, Petri dishes containing Mueller-Hinton agar supplemented with agar-agar, or chocolate agar were prepared. Dilutions of the formulations prepared under Examples 11, 12, 13 and 14 were prepared in aqua purificata, resulting in solutions containing 1000 μg drug per ml (with exception of the formulation only containing levofloxacin, where a dilution containing 640 μg/ml was prepared). […] Two agar plates were poured for each test concentration and culture medium. After solidification and drying, the agar plates were inoculated with the test organisms and incubated as described in Table 7. [table] The MIC was given as the lowest concentration of the active substance at which there was no macroscopically visible growth. Minimal, barely visible growth or few small individual colonies were evaluated as inhibition. The MIC readings are generally subject to an error of up to two dilutions. […] For Haemophilus spp., it was defined that a breakpoint ≦4 μg/ml is classified as susceptible.
(In general: In agar dilution, organisms are placed on agar that contains the substance at set levels.)

In data set [2] the test system is Pseudomonas aeruginosa ATCC 9027. Put plainly: MIC, agar dilution method. The data set is classed as cell-based. Conditions: ATCC9027, Mueller-Hinton agar, aerobic, 16-20 h at 36° C.
From the text: as §1

Data set [3] relates to Haemophilus influenzae ATCC 49247. As to the kind of experiment: MIC, agar dilution method. It counts as cell-based. Conditions: for MIC: ATCC49247, Chocolat agar, microaerophile, 16-20 h at 36° C.
From the text: as §1

For data set [4] the following is noted: cited from earlier work.
The mark [5] stands for this setting: after single oral dose administration.

Structures are written as SMILES. Values after ≈ are worked out from the molar mass of the structure shown.

As for `CC[C@H]1OC(=O)[C@H](C)[C@@H](O[C@H]2C[C@@](C)(OC)[C@@H](O)[C@H](C)O2)[C@H](C)[C@@H](O[C@@H]2O[C@H](C)C[C@H](N(C)C)[C@H]2O)[C@](C)(O)C[C@@H](C)CN(C)[C@H](C)[C@@H](O)[C@]1(C)O` [Azi., azithromycin], the MIC was 25 µg/mL (≈ 33.4 µM) in data set [1], 6.25 µg/mL (≈ 8.34 µM) in data set [2] and 25 µg/mL (≈ 33.4 µM) in data set [3]. The susceptibility classification entry in data set [3] is “resistant”. The “concentration in sputum exceeds the plasma concentration” value in data set [4] (after multiple oral doses) is recorded as 67 fold. Further, the “concentration in alveolar macrophages exceeds plasma concentration” value in data set [4] (setting [5]) is 170 fold. The “concentration in bronchial mucosa exceeds plasma concentration” value in data set [4] (setting [5]) is 29 fold.
Turning to `C[C@H]1COc2c(N3CCN(C)CC3)c(F)cc3c(=O)c(C(=O)O)cn1c23` [Levo., levofloxacin], the values for the MIC in data set [1], in data set [2] and in data set [3] were 4 µg/mL (≈ 11.1 µM), 0.5 µg/mL (≈ 1.38 µM) and 0.25 µg/mL (≈ 0.692 µM), respectively.
As to `NC[C@H]1O[C@H](O[C@H]2[C@H](O)[C@@H](O[C@H]3O[C@H](CO)[C@@H](O)[C@H](N)[C@H]3O)[C@H](N)C[C@@H]2N)[C@H](N)C[C@@H]1O` [Tobr., tobramycin], the MIC was found to be 50 µg/mL (≈ 107 µM) in data set [1], 0.781 µg/mL (≈ 1.67 µM) in data set [2] and 50 µg/mL (≈ 107 µM) in data set [3]. Also, the susceptibility classification entry in data set [3] is “resistant”.
